We go through four compounds from ChEMBL document CHEMBL1201862, “PubChem BioAssay data set” (2004).

Each structure is given as a SMILES string.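 Method: 48-hour compound exposure of cells in 96-well plates, five concentrations, linear interpolation of endpoints. Here, GI50 denotes the concentration required for 50% inhibition of growth.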 The source made the active and inactive calls. No stated cut-off is given here; in the data, active = GI50 up to about 1.1 µM and inactive = higher. Some results are limits rather than exact numbers.

Test systems include SNB-19; SK-OV-3; PC-3; NCI-H522; A498; DU-145; UACC-62; HL-60; COLO 205; MDA-N; SF-539; Hs-578T; M14; HT-29; OVCAR-3; SK-MEL-5; OVCAR-8; UO-31; SF-268; SR.
Test in all cases: inhibition of tumour cell growth, NCI panel, 48 h

Consider `O=C(O)c1ccccc1C1CCCc2c1[nH]c1ccccc21` (stereo not given), for which the GI50 with SNB-19 is > 100 µM (inactive); with SK-OV-3, > 100 µM (inactive); with PC-3 it was 46.9 µM (inactive); with NCI-H522, 47.9 µM (inactive); in the assay with A498, 30.2 µM (inactive); with DU-145 it was > 100 µM (inactive). Besides, the GI50 with UACC-62 is 53.2 µM (inactive); with HL-60 it was 33.2 µM (inactive); in the assay on COLO 205, 74 µM (inactive); in the assay on MDA-N, 27.6 µM (inactive); in the assay with SF-539, 88.7 µM (inactive); in the assay with Hs-578T it was 86.9 µM (inactive). Further, the GI50 is 53.5 µM (inactive) with M14; 61.4 µM (inactive) in the assay on HT-29; 83.4 µM (inactive) in the assay on OVCAR-3; 36.5 µM (inactive) with SK-MEL-5; 75.7 µM (inactive) in the assay with OVCAR-8; 58.5 µM (inactive) in the assay on UO-31. Besides, the values for the GI50 in the assay with SF-268 and in the assay with SR were 66.1 µM (inactive) and 47 µM (inactive), respectively.

Take `C=C(CCC(=O)N(CCc1c[nH]c2ccccc12)C(=O)c1ccccc1CSCC)C(=O)OC`: the GI50 is 56.5 µM (inactive) in the assay on SNB-19; > 71.3 µM (inactive) in the assay on SK-OV-3; 23.2 µM (inactive) with PC-3; 23.6 µM (inactive) in the assay on NCI-H522; 49.2 µM (inactive) in the assay with A498; > 95.5 µM (inactive) with DU-145. Besides, the GI50 in the assay with UACC-62 was 12.4 µM (inactive); in the assay on HL-60, 3.46 µM (inactive); in the assay on COLO 205, 20.9 µM (inactive); in the assay on MDA-N, 38.4 µM (inactive); in the assay with SF-539 it was > 88.5 µM (inactive); in the assay on Hs-578T, 44.5 µM (inactive). The GI50 in the assay on M14 was 44.6 µM (inactive); with HT-29, 19.5 µM (inactive); in the assay on OVCAR-3, > 39.5 µM (inactive); in the assay on SK-MEL-5 it was 23.4 µM (inactive); in the assay with OVCAR-8 it was 48.4 µM (inactive); with UO-31 it was 27.7 µM (inactive). The GI50 is > 77.3 µM (inactive) in the assay with SF-268 and > 100 µM (inactive) with SR.

On to `CNC(=O)OCc1c(COC(=O)NC)c(C)n(-c2ccc(Br)cc2)c1C`, for which the GI50 is 18.7 µM (inactive) in the assay on SNB-19; 10.4 µM (inactive) in the assay with SK-OV-3; 17.2 µM (inactive) in the assay on PC-3; 10.2 µM (inactive) in the assay with NCI-H522; 1.36 µM (inactive) in the assay with A498; 14.3 µM (inactive) in the assay with DU-145. Besides, the GI50 in the assay with UACC-62 was 4.89 µM (inactive); in the assay on HL-60 it was 6.25 µM (inactive); in the assay with COLO 205 it was 13.4 µM (inactive); with MDA-N, 15.7 µM (inactive); in the assay on SF-539, 15.4 µM (inactive); in the assay on Hs-578T, 16.2 µM (inactive). The GI50 with M14 is 13.2 µM (inactive); in the assay with HT-29 it was 5.57 µM (inactive); in the assay on OVCAR-3, 14.6 µM (inactive); in the assay on SK-MEL-5 it was 13.6 µM (inactive); in the assay with OVCAR-8, 12.1 µM (inactive); in the assay with UO-31, 5.57 µM (inactive). Moreover, the results for the GI50 with SF-268 and with SR were 10.7 µM (inactive) and 1.38 µM (inactive), respectively.

As to `C/C=C(/C)C(=O)O[C@H]1[C@H](O)CC(c2ccc3c(c2O)C(=O)C2=C(O)C4(OC)C(=O)C(C(N)=O)=C(O)[C@H](CC(=O)c5ccccc5O)C4CC2[C@@]3(C)OC)O[C@@H]1C` (stereo not given in full), the GI50 in the assay with SNB-19 is 0.00433 µM (active); in the assay on SK-OV-3, 0.00446 µM (active); with PC-3, 0.00637 µM (active); in the assay on NCI-H522, 0.00557 µM (active); with A498, 0.0422 µM (active); in the assay with DU-145, 0.0265 µM (active). Besides, the GI50 with UACC-62 was 0.01 µM (active); with HL-60, 0.0248 µM (active); with COLO 205 it was 0.0104 µM (active); with MDA-N, 0.0272 µM (active); in the assay on SF-539, 0.00611 µM (active); with Hs-578T, 0.0041 µM (active). The GI50 was 0.0213 µM (active) in the assay on M14; 0.00246 µM (active) in the assay with HT-29; 0.00454 µM (active) with OVCAR-3; 0.001 µM (active) in the assay on SK-MEL-5; 0.00475 µM (active) in the assay with OVCAR-8; 0.041 µM (active) with UO-31. The GI50 in the assay on SF-268 is 0.0057 µM (active); in the assay on SR, 0.00426 µM (active).
